Here are results for one compound from patent publication US8957106B2, “Iminosugar treatment of tumors” (The Chancellor, Masters and Scholars of the University of …, priority 2007, dated 2015).

For one assay, the system named is B16D2 melanoma cells. The assay is described as follows: MTS cell viability assay, B16D2. The class given is cell-based. To be noted: B16D2, 24 h, read-out: IC50 (concentration reducing number of viable cells by 50%). As for the experimental part: (§1) Cells were cultured at indicated densities for 24 h, medium was removed and the incubation was continued in a fresh culture medium containing various GC2 or DTIC concentrations. In control experiments, cells were grown in a culture medium containing GC2 buffer.
(§2) The standard […] (MTS)-3-(4,5-dimethylthiazol-2-yl)-5-(3-carboxymethoxyphenyl)-2-(4-sulphophenyl)-2H-tetrazolium inner salt solution assay was performed in order to examine the cytotoxic/cytostatic effect of GC2 on melanoma cells. Briefly, 7.5×10^3 cells were seeded in 96-well microtiter plates (Nunc). After an overnight incubation, serial dilutions of GC2 or DTIC were added in triplicate to a final volume of 100 μl. The blank was represented by a culture medium without cells containing the highest GC2 or DTIC concentration. After 24 h of incubation 20 μl MTS was added to each well and all samples were incubated for 3 h at 37° C. An absorbance of each well was read at 450 nm in a microplate reader. A percentage of cell viability was calculated considering that 100% cell viability was represented by an absorbance of untreated samples […]. Alternatively, the number of viable cells was determined by Trypan blue exclusion test. Melanoma cells treated with GC2 were trypsinized and cells negative for blue staining (viable cells) were counted using a hemocytometer. […]
A general note: Formazan colour is commonly taken as a measure of viable cells.

For another assay, the system named is B16F10 cells. The assay is described as follows: Annexin V/PI double labeling, flow cytometry, B16F10. To be noted: B16F10, 6 μM. The class given is cell-based, murine. As for the experimental part: Apoptosis in GC2-treated melanoma cells was detected using Annexin V and PI double labeling assay, see van Engeland, M., et al., Cytometry, 31, 1-9, 1998. Annexin V/PI labeling was applied to both fluorescence microscopy and flow cytometry following the protocol supplied by the manufacturer. Briefly, for fluorescence microscopy analysis adherent cells (approximately 16×10^4) treated with GC2 were washed with annexin V binding buffer, and incubated with Alexa Fluor® 488 Annexin V (5 μl in 1 ml annexin V binding buffer) for 15 min at RT, in the dark, to which 0.2 μg PI was added. Live cells were washed with annexin V binding buffer and examined by microscopy. For flow cytometric analysis, cells treated with GC2 were harvested by trypsinisation and a number of viable cells was counted. 16×10^4 cells were re-suspended in 0.2 ml annexin V binding buffer and treated in the same were adherent cells. Finally, labeled cells were analyzed with a FACScan™ using CellQuest™ software (Becton Dickinson, San Jose, Calif.).
Cells cultured under normal conditions for 24 h were further treated for 5 h, 8 h or 24 h with 6 μM of GC2, labeled with annexin V and PI and quantitatively analyzed by flow cytometry for viable, apoptotic and necrotic populations (FIG. 7).

The test system of a further assay is SKMel28 melanoma cells. The assay is described as follows: MTS cell viability assay, SKMel28. The class given is cell-based. To be noted: Homo sapiens, SK-MEL-28, SKMel28, 24 h, read-out: IC50 (concentration reducing number of viable cells by 50%). As for the experimental part:
as §1, §2

Take `CC(=O)O.CCCCCCCCCN1[C@@H](CO)[C@@H](O)[C@H](O)[C@@H]1CCCCCCCC` [GC2, (2S,3R,4R,5S)-3,4-dihydroxy-N-nonyl-5-octyl-2 hydroxymethylpyrrolidinium acetate]: the IC50 with B16D2 melanoma cells is 11 µM; with SKMel28 melanoma cells it was 7 to 8 µM. The “number of viable, apoptotic or necrotic cells” value with B16F10 cells (5 h) is listed as “did not change significantly”. In addition, the “increase of apoptotic cells versus control (factor)” value is given as 1.7 in the assay with B16F10 cells (8 h) and 2.9 with B16F10 cells (24 h). In addition, the “increase of necrotic fraction versus control” value in the assay with B16F10 cells (8 h) was “approximately doubled”. Moreover, the apoptotic cells is on record as 3.44% with B16F10 cells (8 h, control 1.95%) and 6.72% in the assay on B16F10 cells (24 h, control 2.28%). The necrotic fraction is given as 8.78% in the assay with B16F10 cells (8 h, control 4.28%) and 22.16% with B16F10 cells (24 h, control 4.95%). Moreover, in the assay on B16F10 cells (24 h), the “increase of necrotic fraction versus control (factor)” value was determined as 4.4.
